These are literature values, as cited in patent US20220218701A1, “COMPOSITIONS AND METHODS COMPRISING ENDOTHELIN A RECEPTOR ANTAGONISTS AND ANDROGEN THERAPIES” (priority 2019, published 2022).

The test system of one data set is osteoblast. Particulars: cited from earlier work.
The subject of data set [1] is castrate-resistant prostate cancer (CRPC). To be noted: phase 2, 288 men with CRPC, cited from earlier work.
The subject of data set [2] is metastatic prostate cancer. To be noted: cited from earlier work.
The test system of the next data set is metastatic CRPC. To be noted: cited from earlier work.
In data set [3] the test system is prostate cancer bone metastasis. To be noted: in vivo; cited from earlier work.
In data set [4] the test system is breast cancer osteosclerotic bone metastasis. Particulars: mouse, in vivo; cited from earlier work.

For the molecule `CCCCN(CCCC)C(=O)CN1C[C@H](c2ccc3c(c2)OCO3)[C@@H](C(=O)O)[C@@H]1c1ccc(OC)cc1` [atrasentan], the “anabolic effects of ET-1 on the osteoblast” value in the data set on osteoblast is listed as “block”. Moreover, the “prostate-specific antigen (PSA) progression” value in data set [1] is reported as “delayed”. The time to progression in data set [1] (increased from 129) is on record as 196 days. Further, in data set [2] (phase 3, 809 men with metastatic disease), the “time to progression (primary endpoint)” value was “did not reduce”. Moreover, the “bone alkaline phosphatase progression” value in data set [2] (phase 3, secondary analyses) was “did reduce”. The “overall or progression-free survival compared to placebo” value in the data set on metastatic CRPC (men with metastatic CRPC treated with docetaxel) is reported as “did not improve”. The survival result in the data set with metastatic CRPC (patients with the highest circulating levels of bone turnover markers) is given as “survival benefit”. Further, in data set [3], the bone lesions entry is recorded as “significantly reduced”; the “lesions outside of the skeleton such as adrenal gland and liver” value is given as “not lesions outside of the skeleton”. Further, in data set [4], the “formation of osteoblastic lesions” value was “blocked” and the “tumor progression outside of bone” value is on record as “not tumor progression outside of bone”.
